In patent US20200405697A1, “Antitumor Agent” (Taiho Pharmaceutical Co., Ltd, priority 2017, published 2020):

These compounds were tested against T1, human RNR (histidine tagged human M1 and human M2 proteins) (Homo sapiens, UniProt P23921) (assay: Human RNR inhibition effect (dCDP formation from CDP)). Details: 10 μM CDP, 37° C. for 30 minutes, read-out: RNR inhibitory activity IC50.
T1 construct: made in house; host or cells: Escherichia coli
T1 sequence (P23921 1-792): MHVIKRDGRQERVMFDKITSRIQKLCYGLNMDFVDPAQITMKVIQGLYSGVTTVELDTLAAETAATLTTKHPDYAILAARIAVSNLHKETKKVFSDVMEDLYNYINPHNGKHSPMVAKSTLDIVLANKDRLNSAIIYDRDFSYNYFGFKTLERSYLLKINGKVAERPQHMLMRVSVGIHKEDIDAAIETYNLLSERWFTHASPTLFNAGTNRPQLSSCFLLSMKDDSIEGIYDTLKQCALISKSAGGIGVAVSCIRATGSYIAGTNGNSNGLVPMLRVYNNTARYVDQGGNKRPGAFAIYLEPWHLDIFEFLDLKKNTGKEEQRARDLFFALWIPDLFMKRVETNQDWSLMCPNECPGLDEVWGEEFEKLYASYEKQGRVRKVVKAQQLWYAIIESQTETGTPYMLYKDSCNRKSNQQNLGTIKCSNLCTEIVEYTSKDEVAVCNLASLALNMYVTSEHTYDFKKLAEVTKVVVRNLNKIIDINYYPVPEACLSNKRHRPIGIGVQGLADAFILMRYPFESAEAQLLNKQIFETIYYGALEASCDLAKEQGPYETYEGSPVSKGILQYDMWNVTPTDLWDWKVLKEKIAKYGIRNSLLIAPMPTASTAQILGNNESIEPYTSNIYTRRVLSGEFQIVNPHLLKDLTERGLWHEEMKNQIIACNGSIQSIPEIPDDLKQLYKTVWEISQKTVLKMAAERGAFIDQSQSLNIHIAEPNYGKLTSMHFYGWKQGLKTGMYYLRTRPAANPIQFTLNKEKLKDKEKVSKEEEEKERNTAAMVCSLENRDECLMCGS
Assay type: biochemical
Procedure, shortened: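 His-tagged human M1 (isoform 1) and N-terminal 59-aa-truncated M2 (isoform 2), E. coli-expressed, Ni-purified, preincubated 20 min with compound (1% DMSO). Reaction with 10 μM CDP, 2 mM ATP, 0.24 mM NADPH, 6 mM DTT, 4 mM Mg acetate, 100 mM KCl, 50 mM HEPES pH 7.2, 30 min at 37° C. dCDP formed quantified by reverse-phase HPLC after heat stop.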

| IC50 [nM] | SMILES |
| --- | --- |
| 150 | Cc1ccc(F)c([C@@H](C)[C@H](NS(=O)(=O)c2ccc(Cl)c3c2OCCC3=O)c2n[nH]c(=O)o2)c1C [Example 88, 5-chloro-N-((1S,2R)-2-(6-fluoro-2,3-dimethylphenyl)-1-(5-oxo-4,5-dihydro-1,3,4-oxadiazol-2-yl)propyl)-4-oxochroman-8-sulfonamide] |
| 420 | COc1cc(Cl)ccc1S(=O)(=O)N[C@H](c1n[nH]c(=O)o1)C(C)c1c(F)c(F)cc(C)c1Br (stereo partly drawn) [Example 89, N-((1S)-2-(2-bromo-5,6-difluoro-3-methylphenyl)-1-(5-oxo-4,5-dihydro-1,3,4-oxadiazol-2-yl)propyl)-4-chloro-2-methoxybenzenesulfonamide] |
| 160 | COc1cc(Cl)ccc1S(=O)(=O)N[C@H](c1n[nH]c(=O)o1)[C@H](C)c1c(C)c(C)cc(F)c1F [Example 90, 4-chloro-N-((1S,2R)-2-(2,3-difluoro-5,6-dimethylphenyl)-1-(5-oxo-4,5-dihydro-1,3,4-oxadiazol-2-yl)propyl)-2-methoxybenzenesulfonamide] |
| 230 | Cc1ccc(F)c([C@@H](C)[C@H](NS(=O)(=O)c2ccc(Cl)cc2-c2ccno2)c2n[nH]c(=O)o2)c1C [Example 91, 4-chloro-N-((1S,2R)-2-(6-fluoro-2,3-dimethylphenyl)-1-(5-oxo-4,5-dihydro-1,3,4-oxadiazol-2-yl)propyl)-2-(isoxazol-5-yl)benzenesulfonamide] |
| 200 | Cc1ccc(F)c([C@@H](C)[C@H](NS(=O)(=O)c2ccc(Br)cc2C#N)c2n[nH]c(=O)o2)c1C [Example 92, 4-bromo-2-cyano-N-((1S,2R)-2-(6-fluoro-2,3-dimethylphenyl)-1-(5-oxo-4,5-dihydro-1,3,4-oxadiazol-2-yl)propyl)benzenesulfonamide] |
| 100 | Cc1ccc(F)c([C@@H](C)[C@H](NS(=O)(=O)c2ccc(Cl)c3c2OCC(=O)N3C)c2n[nH]c(=O)o2)c1C [Example 93, 5-chloro-N-((1S,2R)-2-(6-fluoro-2,3-dimethylphenyl)-1-(5-oxo-4,5-dihydro-1,3,4-oxadiazol-2-yl)propyl)-4-methyl-3-oxo-3,4-dihydro-2H-benzo[b][1,4]oxazine-8-sulfonamide] |
| 110 | CCN1CCOc2c(S(=O)(=O)N[C@H](c3n[nH]c(=O)o3)[C@H](C)c3c(F)ccc(C)c3C)ccc(Cl)c21 [Example 94, 5-chloro-4-ethyl-N-((1S,2R)-2-(6-fluoro-2,3-dimethylphenyl)-1-(5-oxo4,5-dihydro-1,3,4-oxadiazol-2-yl)propyl)-3,4-dihydro-2H-benzo[b][1,4]oxazine-8-sulfonamide] |
| 100 | CCc1ccc(F)c([C@@H](C)[C@H](NS(=O)(=O)c2ccc(Br)cc2C(N)=O)c2n[nH]c(=O)o2)c1C [Example 96, 5-bromo-2-(N-((1S,2R)-2-(3-ethyl-6-fluoro-2-methylphenyl)-1-(5-oxo-4,5-dihydro-1,3,4-oxadiazol-2-yl)propyl)sulfamoyl)benzamide] |
| 240 | Cc1ccc(F)c([C@@H](C)[C@H](NS(=O)(=O)c2cccc3c2OC(C)(C)CC3=O)c2n[nH]c(=O)o2)c1C [Example 97, N-((1S,2R)-2-(6-fluoro-2,3-dimethylphenyl)-1-(5-oxo-4,5-dihydro-1,3,4-oxadiazol-2-yl)propyl)-2,2-dimethyl-4-oxochroman-8-sulfonamide] |
| 640 | Cc1ccc(F)c([C@@H](C)[C@H](NS(=O)(=O)c2ccccc2C#N)c2n[nH]c(=O)o2)c1C [Example 98, 2-cyano-N-((1S,2R)-2-(6-fluoro-2,3-dimethylphenyl)-1-(5-oxo-4,5-dihydro-1,3,4-oxadiazol-2-yl)propyl)benzenesulfonamide] |
| 290 | Cc1ccc(F)c([C@@H](C)[C@H](NS(=O)(=O)c2cccc3c2OCCN3C(=O)C2CC2)c2n[nH]c(=O)o2)c1C [Example 99, 4-(cyclopropanecarbonyl)-N-((1S,2R)-2-(6-fluoro-2,3-dimethylphenyl)-1-(5-oxo-4,5-dihydro-1,3,4-oxadiazol-2-yl)propyl)-3,4-dihydro-2H-benzo[b][1,4]oxazine-8-sulfonamide] |
| 300 | CC(=O)OC1(C)CCOc2c(S(=O)(=O)N[C@H](c3n[nH]c(=O)o3)[C@H](C)c3c(F)ccc(Cl)c3C)ccc(Cl)c21 (stereo partly drawn) [Example 100, 5-chloro-8-(N-((1S,2R)-2-(3-chloro-6-fluoro-2-methylphenyl)-1-(5-oxo-4,5-dihydro-1,3,4-oxadiazol-2-yl)propyl)sulfamoyl)-4-methylchroman-4-yl acetate] |
| 130 | Cc1ccc(F)c([C@@H](C)[C@H](NS(=O)(=O)c2ccc(Cl)c3c2OCC(=O)N3CC(F)F)c2n[nH]c(=O)o2)c1C [Example 101, 5-chloro-4-(2,2-difluoroethyl)-N-((1S,2R)-2-(6-fluoro-2,3-dimethylphenyl)-1-(5-oxo-4,5-dihydro-1,3,4-oxadiazol-2-yl)propyl)-3-oxo-3,4-dihydro-2H-benzo[b][1,4]oxazine-8-sulfonamide] |
| 140 | Cc1ccc(F)c([C@@H](C)[C@H](NS(=O)(=O)c2ccc(Cl)c3c2OCCN3CC(F)F)c2n[nH]c(=O)o2)c1C [Example 102, 5-chloro-4-(2,2-difluoroethyl)-N-((1S,2R)-2-(6-fluoro-2,3-dimethylphenyl)-1-(5-oxo-4,5-dihydro-2,3,4-oxadiazol-2-yl)propyl)-3,4-dihydro-2H-benzo[b][1,4]oxazine-8-sulfonamide] |
| 410 | COC(=O)c1cc(Cl)ccc1S(=O)(=O)N[C@H](c1n[nH]c(=O)o1)[C@H](C)c1c(F)ccc(C)c1C [Example 103, methyl 5-chloro-2-(N-((1S,2R)-2-(6-fluoro-2,3-dimethylphenyl)-1-(5-oxo-4,5-dihydro-1,3,4-oxadiazol-2-yl)propyl)sulfamoyl)benzoate] |
| 840 | COc1cc(Cl)ccc1S(=O)(=O)N[C@H](c1n[nH]c(=O)o1)[C@H](C)c1c(F)ccc(C#N)c1C [Example 104, 4-chloro-N-((1S,2R)-2-(3-cyano-6-fluoro-2-methylphenyl)-1-(5-oxo-4,5-dihydro-1,3,4-oxadiazol-2-yl)propyl)-2-methoxybenzenesulfonamide] |
| 160 | Cc1ccc(F)c([C@@H](C)[C@H](NS(=O)(=O)c2ccc(Cl)c(C#N)n2)c2n[nH]c(=O)o2)c1C [Example 105, 5-chloro-6-cyano-N-((1S,2R)-2-(6-fluoro-2,3-dimethylphenyl)-1-(5-oxo-4,5-dihydro-1,3,4-oxadiazol-2-yl)propyl)pyridine-2-sulfonamide] |
| 270 | CC(=O)OC1(C(F)(F)F)CCOc2c1cccc2S(=O)(=O)N[C@H](c1n[nH]c(=O)o1)[C@H](C)c1c(F)ccc(C)c1C (stereo partly drawn) [Example 106, 8-(N-((1S,2R)-2-(6-fluoro-2,3-dimethylphenyl)-1-(5-oxo-4,5-dihydro-1,3,4-oxadiazol-2-yl)propyl)sulfamoyl)-4-(tifluoromethyl)chroman-4-ylacetate] |
| 240 | Cc1ccc(F)c([C@@H](C)[C@H](NS(=O)(=O)c2ccc(Cl)c3c2C(=O)CCC3)c2n[nH]c(=O)o2)c1C [Example 107, 4-chloro-N-((1S,2R)-2-(6-fluoro-2,3-diinethylphenyl)-1-(5-oxo-4,5-dihydro-1,3,4-oxadiazol-2-yl)propyl)-8-oxo-5,6,7,8-tetrahydronaphthalene-1-sulfonamide] |
| 430 | COc1c(S(=O)(=O)N[C@H](c2n[nH]c(=O)o2)[C@H](C)c2c(F)ccc(C)c2C)ccc(Cl)c1C(C)(C)OC(C)=O [Example 108, 2-(6-chloro-3-(N-((1S,2R)-2-(6-fluoro-2,3-dimethylphenyl)-1-(5-oxo-4,5-dihydro-1,3,4-oxadiazol-2-yl)propyl)sulfamoyl)-2-methoxyphenyl)propan-2-ylacetate] |
| 60 | COC(=O)c1nc(S(=O)(=O)N[C@H](c2n[nH]c(=O)o2)[C@H](C)c2c(F)ccc(C)c2C)ccc1Cl [Example 109, methyl 3-chloro-6-(N-((1S,2R)-2-(6-fluoro-2,3-dimethylphenyl)-1-(5-oxo-4,5-dihydro-1,3,4-oxadiazol-2-yl)propyl)sulfamoyl)picolinate] |
| 960 | Cc1ccc(F)c([C@@H](C)[C@H](NS(=O)(=O)c2c(F)cccc2F)c2n[nH]c(=O)o2)c1C [Example 110, 2,6-difluoro-N-((1S,2R)-2-(6-fluoro-2,3-dimethylphenyl)-1-(5-oxo-4,5-dihydro-1,3,4-oxadiazol-2-yl)propyl)benzenesulfonamide] |
| 270 | Cc1ccc(F)c([C@@H](C)[C@H](NS(=O)(=O)c2c(F)cc(Cl)cc2F)c2n[nH]c(=O)o2)c1C [Example 111, 4-chloro-2,6-difluoro-N-((1S,2R)-2-(6-fluoro-2,3-dimethylphenyl)-1-(5-oxo-4,5-dihydro-1,3,4-oxadiazol-2-yl)propyl)benzenesulfonamide] |
